In patent US11752125B2, “Anti-neuroinflammatory and protective compounds in Achillea fragrantissima” (THE STATE OF ISRAEL MINISTRY OF AGRICULTURE & RURAL …, priority 2013, dated 2023):

Key:
Format in all cases: cell-based, rat
[1] = system: MMP-9; assay: MMP-9 transcripts in LPS-activated microglial cells (real-time PCR); settings: LPS 4.5 ng/mL; quantitative real-time PCR
Experimental: (§1) RNA was extracted by the RNeasy Plus Mini Kit (Qiagen, Hilden, Germany) according to the manufacturer's instructions. Genomic DNA was removed from the RNA samples by using 50 units of RNase-free DNaseI at 37° C. for 1 h. RNA ([…]) was converted to cDNA using the Thermo Scientific Verso cDNA kit (Thermo Fisher Scientific Inc) following the manufacturer's protocol. The cDNA was used for quantitative real-time PCR amplification with TaqMan chemistry (Applied Biosystems) using Rat MMP9, TNFα, IL1β, iNOS, COX2 pre-designed TaqMan Gene Expression Assay from Applied Biosystems (Rn00579162_m1, Rn00562055_m1, Rn00580432_m1, Rn00561646_m1, Rn01483828_m1, respectively). […] All results from three technical replicates were normalized relative to α-Tubulin (Rn01532518.g1) and GAPDH (Rn01775763.g1), respectively, and expressed as relative expression ratios calculated (relative quantity, RQ) using the comparative method and based on the data that were created by the ABI PRISM 7700 Sequence Detection System (using version 1.6 software).
(§2) Procedure 23. Measurement of IL-1Beta, TNFalpha, iNOS, COX-2 and MMP-9 Transcripts in LPS-Activated Microglial Cells by Quantitative Real-Time PCR Analysis. • 1. […]
Microglial cells were treated with the indicated concentrations of achillolide A, followed by stimulation with LPS (4.5 ng/mL). […] The levels of MMP-9 transcripts were measured by quantitative real-time PCR. […]

[2] = system: p38; assay: H2O2-induced p38 phosphorylation in astrocytes (ELISA); settings: astrocytes preincubated 2 h, H2O2 175 μM 40 min
Experimental: Astrocytes were treated with 175 μM of H2O2 for 40 min following preincubation with achillolide A for 2 h. The levels of phosphorylated and total MEK1 (FIG. 40A), phosphorylated and total ERK1/2 (FIG. 40B), phosphorylated SAPK/JNK (FIG. 40C) and phosphorylated p38 (FIG. 40D) were measured by ELISA. The results are means±SEM of two experiments (n=4) for MEK1 and ERK 1/2, one experiment for SAPK/JNK and p38 (n=2). ***p<0.001.

[3] = system: MMP-9; assay: MMP-9 activity in LPS-activated microglial cells (gelatin zymography); settings: LPS 4.5 ng/mL, 24 h
Text: Determination of MMP Activities in Conditioned Media of Microglial Cells. MMP-9 activity was quantified by gelatin zymography.
1. Prepare a primary culture of microglial cells and plate cells as described in “Anti-neuroinflammatory effects of the extract of achillea fragrantissima” 2011. A. Elmann, S. Mordechay, H. Erlank, A. Telerman, M. Rindner, R. Ofir. BMC Complementary and Alternative Medicine. 11:98; 2. Treat cells with freshly diluted AcA of the invention; 3. Activate microglial cells with lipopolysaccharide (LPS, 4.5 nanograms/mL); 4. Measure the levels of MMP-9 by gel zymography as described in “Anti-neuroinflammatory effects of the extract of achillea fragrantissima” 2011. A. Elmann, S. Mordechay, H. Erlank, A. Telerman, M. Rindner, R. Ofir. BMC Complementary and Alternative Medicine. 11:98. 5. […]
Microglial cells were treated with the indicated concentrations of achillolide A, followed by stimulation with LPS (4.5 ng/mL). […] The levels of MMP-9 transcripts were measured by quantitative real-time PCR. The results from three technical replicates were normalized to β-actin and are expressed as relative quantity of MMP-9 transcripts in FIG. 23 B. The results are means±SD of one representative experiment out of three experiments. Cell viability was determined 24 h later by the crystal violet assay. […]

[4] = system: IL-1β; assay: IL-1β transcripts in LPS-stimulated microglial cells (real-time PCR); settings: 20 μg/mL; LPS 4.5 ng/mL, 5 h
Experimental: as §1, §2
Microglial cells were treated with 20 μg/mL of achillolide A, followed by stimulation with LPS (4.5 ng/mL). […] The results are expressed as percentages relative to LPS-stimulated cells. […]

Structure (SMILES): C=C1CCC2=C(CO)C(=O)O[C@H]2/C=C(\C)[C@H](OC(C)=O)CC1=O [achillolide A]
- effect on MMP-9 transcripts [1]: down-regulates
- effect on H2O2-induced phosphorylation of p38 [2]: inhibitory effect
- effect on LPS-induced MMP-9 activity [3]: markedly inhibited
- effect on LPS-induced IL-1β transcript levels [4]: significantly inhibited
